Source: ChEMBL document CHEMBL2401662, “The synthesis of neurotensin antagonist SR 48692 for prostate cancer research” (Bioorg Med Chem, 2013)
The source made the active and inactive calls. The calls are words filed in the database; no cut-off is given here.

Tests used:
SK-OV-3 [1] = test: Cytotoxicity against human SKOV3 cells at < 100 uM by MTS assay; assay type: functional, cell-based
SK-OV-3 [2] = test: Cytotoxicity against human SKOV3 cells at 100 uM by MTS assay; assay type: functional, cell-based
[3] = Cytotoxicity against human C4-2B cells after 5 days by CellTitre Glo assay; assay type: functional, cell-based; details: LNCaP C4-2B, 120 h
LNCaP [4] = test: Cytotoxicity against human LNCAP cells at >/= 50 uM after 5 days by CellTitre Glo assay; assay type: functional, cell-based
Sortilin = molecular target: T1, Sortilin (Homo sapiens, UniProt Q99523); test: Binding affinity to NTR3 (unknown origin)
T1 sequence (Q99523 whole entry): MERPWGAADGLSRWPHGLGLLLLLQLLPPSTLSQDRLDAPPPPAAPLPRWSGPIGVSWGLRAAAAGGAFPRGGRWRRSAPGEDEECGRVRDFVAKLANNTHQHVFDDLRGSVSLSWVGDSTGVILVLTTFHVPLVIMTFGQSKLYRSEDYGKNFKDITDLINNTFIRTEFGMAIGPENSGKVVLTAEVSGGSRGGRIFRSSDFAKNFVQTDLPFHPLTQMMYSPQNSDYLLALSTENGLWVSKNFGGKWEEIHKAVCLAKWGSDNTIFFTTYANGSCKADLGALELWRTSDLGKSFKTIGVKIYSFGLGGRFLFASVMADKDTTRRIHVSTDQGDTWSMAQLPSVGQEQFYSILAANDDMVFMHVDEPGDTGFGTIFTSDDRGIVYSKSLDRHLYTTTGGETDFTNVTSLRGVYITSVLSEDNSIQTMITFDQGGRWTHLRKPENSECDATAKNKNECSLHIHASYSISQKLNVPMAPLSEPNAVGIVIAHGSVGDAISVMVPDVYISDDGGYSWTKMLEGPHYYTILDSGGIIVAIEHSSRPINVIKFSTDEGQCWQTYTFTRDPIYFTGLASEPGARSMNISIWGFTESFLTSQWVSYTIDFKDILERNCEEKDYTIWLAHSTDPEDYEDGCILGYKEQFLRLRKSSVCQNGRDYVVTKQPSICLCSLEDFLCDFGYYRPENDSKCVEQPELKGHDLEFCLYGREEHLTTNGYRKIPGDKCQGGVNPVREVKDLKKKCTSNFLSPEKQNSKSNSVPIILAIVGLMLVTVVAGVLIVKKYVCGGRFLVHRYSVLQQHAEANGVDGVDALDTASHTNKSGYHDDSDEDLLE

[5] = molecular target: Neurotensin receptor type 1 (Rattus norvegicus, UniProt P20789); test: Displacement of [125I]NT from rat NTR1 transfected in mouse LTK cells; assay type: cell-based
LNCaP C4-2B = test: Cytotoxicity against human C4-2B cells at >/= 50 uM after 5 days by CellTitre Glo assay; assay type: functional, cell-based
LNCaP [6] = test: Cytotoxicity against human biculamide-resistant LNCAP cells at >/= 50 uM after 5 days by CellTitre Glo assay; assay type: functional, cell-based
[7] = molecular target: Neurotensin receptor type 2 (Homo sapiens, UniProt O95665); test: Binding affinity to NTR2 (unknown origin)
Neurotensin receptor type 2, sequence (O95665 whole entry): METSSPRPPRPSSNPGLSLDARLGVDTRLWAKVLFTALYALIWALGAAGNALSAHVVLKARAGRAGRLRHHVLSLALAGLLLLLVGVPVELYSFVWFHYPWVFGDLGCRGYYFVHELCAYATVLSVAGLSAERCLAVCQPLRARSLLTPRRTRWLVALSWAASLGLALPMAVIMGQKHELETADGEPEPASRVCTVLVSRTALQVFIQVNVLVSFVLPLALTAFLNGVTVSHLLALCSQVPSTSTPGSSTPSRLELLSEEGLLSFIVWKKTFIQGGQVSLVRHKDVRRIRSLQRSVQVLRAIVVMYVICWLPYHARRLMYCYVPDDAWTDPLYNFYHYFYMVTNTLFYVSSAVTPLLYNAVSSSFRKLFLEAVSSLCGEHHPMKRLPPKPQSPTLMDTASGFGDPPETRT

Neurotensin receptor type 1, sequence (P20789 whole entry): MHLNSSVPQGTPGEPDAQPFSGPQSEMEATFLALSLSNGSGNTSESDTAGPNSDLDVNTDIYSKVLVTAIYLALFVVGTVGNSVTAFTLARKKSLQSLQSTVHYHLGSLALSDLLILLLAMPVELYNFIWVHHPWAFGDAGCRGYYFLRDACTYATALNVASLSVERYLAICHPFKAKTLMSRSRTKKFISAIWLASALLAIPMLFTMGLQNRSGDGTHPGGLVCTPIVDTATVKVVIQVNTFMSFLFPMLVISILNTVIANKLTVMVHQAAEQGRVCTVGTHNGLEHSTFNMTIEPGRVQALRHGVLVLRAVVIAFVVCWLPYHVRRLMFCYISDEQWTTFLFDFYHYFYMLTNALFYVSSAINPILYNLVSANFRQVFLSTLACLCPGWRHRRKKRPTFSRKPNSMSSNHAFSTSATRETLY

IC50 (Sortilin): 238 nM
Ki [5]: 2.6 nM
Ki [7]: 418 nM
Compound: COc1cccc(OC)c1-c1cc(C(=O)NC2(C(=O)O)C3CC4CC(C3)CC2C4)nn1-c1ccnc2cc(Cl)ccc12 (centres undefined) [REMINERTANT]
Activity (SK-OV-3 [1]): inactive
Activity (SK-OV-3 [2]): Active
IC50 [3]: 30000 nM
Activity (LNCaP [4]): Active
Activity (LNCaP C4-2B): Active
Activity (LNCaP [6]): Active
